From paper PMC8273890, “Development of [^18F]AldoView as the First Highly Selective Aldosterone Synthase PET Tracer for Imaging of Primary Hyperaldosteronism” (Journal of Medicinal Chemistry, 2021)

Tests used:
human CYP11B2 [1] = assay: Inhibition of human CYP11B2 (aldosterone synthase), literature values; type: biochemical; conditions: human isoforms
[2] = Dynamic PET/CT imaging in mice; type: in vivo, female BALB/c mice; conditions: PET
Procedure: Dynamic PET imaging was performed using a nanoScan PET-CT system manufactured by Mediso (Medical Imaging Systems, Budapest, Hungary). Mice (n = 6) were anaesthetized with isoflurane (2% v/v in oxygen) and placed on the preheated bed of the scanner (set at 38 °C). [^18F]AldoView (7.3 ± 4.1 MBq, formulated in 100–150 μl saline containing 5% ethanol) was injected into the tail vein via intravenous cannulation. After injection, the catheter was carefully removed. The breathing rate and body temperature of the animals were closely monitored during the dynamic PET scans and, if necessary, the isoflurane dose was adjusted. Scans were recorded over 1 h, and the animals were subsequently sacrificed by cervical dislocation. Quantification of the tissue uptake (in % ID/g) was carried out based on the regions of interest manually drawn on the CT using the software package VivoQuant 1.23 (inviCRO, Boston, USA).

[3] = Ex vivo biodistribution in mice (gamma counting); parameters: species or system female BALB/c mice
Procedure: [^18F]AldoView (6.6 ± 1.9 MBq, formulated in saline containing 5% ethanol) was administered intravenously into the tail vein of female wild-type BALB/c mice (n = 3–4 per time point) without anesthesia. At designated time points (15, 30, 60, and 120 min postinjection), animals were anesthetized with isoflurane (4% v/v in oxygen) and the blood was taken by cardiac puncture. Mice were subsequently sacrificed by cervical dislocation. The organs of interest were sampled and weighed, and the radioactivity content was measured by automated gamma counting (PerkinElmer Wizard^2). Results were expressed as % ID/g bodyweight.

[4] = Blood/plasma metabolite analysis by radio-HPLC; type: in vivo, female BALB/c mice
Procedure: Blood metabolite analysis was performed as part of the biodistribution studies (n = 2–3 per time point). Blood samples were collected in heparin-coated tubes, and an aliquot (20 μL) was taken for gamma counting. After centrifugation (5 min, 13,000 rpm), the plasma (∼500 μL) was separated. Plasma proteins were subsequently precipitated with ice-cold acetonitrile (1 mL), and samples were centrifuged (5 min, 13,000 rpm). An aliquot of the supernatant (500 μL) was separated from the pellet and diluted with water (500 μL). The recovery of radioactivity in the supernatant was near quantitative (>95%). Analysis was carried out by radio-HPLC using a Phenomenex Onyx monolithic C-18 column (100 × 10 mm). The mobile phase consisted of water and methanol, and the flow rate was 5 mL/min. An isocratic eluent (10% methanol in water) was used for 3 min, followed by a gradient from 10 to 70% methanol over 7 min.

human CYP11B2 [5] = tested on: human CYP11B2; parameters: method as in PMID 26005536; conditions: cited from earlier work
hCYP11B1 = tested on: hCYP11B1; parameters: method as in PMID 26005536; conditions: read-out: IC50 CYP11B1; cited from earlier work
[6] = biodistribution, 15 min postinjection
[7] = biodistribution, 30 min postinjection (peak)

In the case of Fc1cc2nc(-c3cncc([18F])c3)n(C3CC3)c2cc1F [[^18F]AldoView], the “hCYP11B2 selectivity (B2/B1 ratio)” value (human CYP11B2 [1]) is reported as 93, the “time for liver activity to decrease to half the peak value” [2] is reported as ≤ 30 min and the peak liver activity ([2]; at 6 min postinjection) is reported as 48 ± 11 % ID/g. The “level of activity in muscle” value ([2]; knee extensors, throughout scan (1 h)) was < 1.5 % ID/g, the “time of peak liver activity” value ([2]; postinjection) was 6 min and the “ratio between tracer uptake in adrenals and kidneys” value ([3]; 15 min postinjection) was 1.2. The “activity level in kidneys” value [3, 6] was 5.2 ± 3.5 % ID/g, the “activity level in liver” value [3, 6] was 11.8 ± 4.1 % ID/g and the “activity level in small intestines” value [3, 6] was 4.3 ± 4.7 % ID/g. The “activity level in adrenals” value ([3]; biodistribution, 15 min postinjection, n = 2) was 6.1 % ID/g, the “activity level in adrenals” value ([3]; biodistribution, 30 min postinjection) was 4.0 ± 2.5 % ID/g and the “activity level in kidneys” value [3, 7] was 5.7 ± 2.9 % ID/g. For the same compound, the “activity level in liver” value [3, 7] was 12.4 ± 5.9 % ID/g, the “activity level in adrenals” value ([3]; biodistribution, 60 min postinjection) was 1.8 ± 1.1 % ID/g and the “intact parent fraction in blood” value ([4]; 15 min postinjection) was 59%. For the same compound, the “intact parent fraction in blood” value ([4]; 30 min postinjection) was 29%, the “intact parent fraction in blood” value ([4]; 60 min postinjection) was 21% and the tracer in blood ([4]; 120 min postinjection) was “still detectable in blood at 120 min, although at low levels”. For the same compound, the IC50 (human CYP11B2 [5]) was 4.7 nM and the IC50 (hCYP11B1) was 435 nM.
